{"source": "patent EP3875583A1", "about": "“GENETIC CASSETTE COMPRISING THE PHT PATHWAY GENES, RECOMBINANT HOST CELLS COMPRISING IT AND THEIR USE IN THE DEGRADATION AND VALORIZATION OF PHTHALATES” (Consejo Superior de Investigaciones Científicas (CSIC), priority 2020, dated 2021)", "format_in_all_cases": "cell-based", "key": {"boxB2 gene": {"test_system": "boxB2 gene", "test": "real-time RT-PCR gene expression in C. necator H16 (pIZPHTRAP) cells", "conditions": "cells grown on 3 mM PA compared with 18 mM pyruvate (control)", "experimental": "(§1) Cupriavidus necator H16 and Azoarcus sp. CIB cells harboring plasmid pIZPHTRAP were grown aerobically on PA-, benzoate- or pyruvate-containing MC medium until the culture reached to the end of the exponential phase. Cells were lysed in TE buffer (10 mM Tris-HCI, pH 7.5, 1 mM EDTA) containing 50 mg ml^-1 lysozyme. Total RNA was extracted using a High Pure RNA isolation kit (Roche), and then it was DNase-treated with a Turbo DNase kit (Ambion). The concentration and purity of the RNA samples were assessed using a Nanophotometer Pearl (Implen) according to the manufacturer's protocols, and by testing the absence of DNA through PCR amplification. Synthesis of total cDNA was performed by using the Transcriptor First Strand cDNA Synthesis kit (Roche) in 20-µl reactions containing 1 µg of RNA, 1 mM concentration of each dNTP, 10 units of reverse transcriptase, 20 units of Protector RNase Inhibitor, and 60 µM random hexamers as primers in the buffer provided by the manufacturer. The RNA and hexamers were initially heated at 65 °C for 10 min and following the addition of the rest of the components, samples were incubated at 25°C for 10 min and then at 55°C for 30 min. Reactions were terminated by incubation at 85°C for 5 min. In standard RT-PCR reactions, the cDNA was amplified with 1 unit of AmpliTaq DNA polymerase (Biotools) and […] concentrations of the corresponding primer pairs of the boxB gene from Azoarcus sp. CIB (Table 2). […] For relative quantification of the fluorescence values, a calibration curve was constructed by sevenfold serial dilutions of a C. necator H16 genomic DNA sample ranging from 1 ng to 0.5 x10-7 ng. […]\n(§2) To confirm that C. necator H16 (pIZPHTRAP) was degrading PA via the box pathway, we analyzed the expression of some marker genes of the classical ben-cat pathway, e.g. benA gene, and the hybrid box pathway, e.g., boxB1 (for cluster box1) and boxB2 (for cluster box2) (Fig. 5C). qRT-PCR gene expression studies of C. necator H16 (pIZPHTRAP) cells grown on PA were compared with those of cells grown on pyruvate (control). […]"}, "benA gene": {"test_system": "benA gene", "test": "real-time RT-PCR gene expression in C. necator H16 (pIZPHTRAP) cells", "conditions": "cells grown on 3 mM PA compared with 18 mM pyruvate (control); result in words", "experimental": "as §1, §2"}, "boxB1 gene": {"test_system": "boxB1 gene", "test": "real-time RT-PCR gene expression in C. necator H16 (pIZPHTRAP) cells", "conditions": "cells grown on 3 mM PA compared with 18 mM pyruvate (control)", "experimental": "as §1, §2"}, "[1]": {"test_system": "Azoarcus sp. CIB (pIZPHTRAP) strain"}, "[2]": {"test_system": "PhtTa-PhtTb TAXI-TRAP transporter", "test": "[14C]-PA uptake assay in Azoarcus sp. CIB (pIZPHTRAP) cells expressing the transporter", "conditions": "for [14C]-PA uptake rate, % of the rate in the absence of a competitor substrate: 25 µM [14C]-PA; for [14C]-PA uptake after pre-incubation with inhibitor: cells pre-incubated 10 min with 1 mM inhibitor before the transport assay", "experimental": "Cells were grown in NB from A600 of 0.1 to A600 of 1.8≈2.0, incubated for 14h, induced by adding 1.0 mM IPTG. Cells were harvested by centrifugation, washed twice in sodium salt and suspended at a cell density of 1090 mg of protein/liter (A600 of 4.0) in sodium salt. […] Phthalate uptake was stopped by diluting the suspensions with 1 mL of ice-cold sodium salt, collecting the cells on a 0.22-µm-pore-size Millipore GSWP nitrocellulose filter, and washing, under suction, the cells with 5 mL of ice-cold sodium salt. The filter was dissolved in 2 ml of scintillation fluid (Cocktail Ready Safe, Beckman) and counted in an LKB Wallac liquid scintillation counter. […]\nWe have shown above that the phtTa-phtTb transport genes are essential for the anaerobic degradation of PA. To confirm that the phtTa-phtTb genes encode a PA transporter and to determine its biochemical properties, we performed PA uptake experiments at different [^14C]-PA concentrations in Azoarcus sp. […] CIB (pIZPHTRAP), i.e., cells that express the catabolic pht genes as well as the phtTa-phtTb transport genes - the genetic cassette of the invention. […]. […] [^14C]-PA uptake rates were tested in the presence of non-radioactive phthalate isomers as competitors."}, "A. evansii cells": {"test_system": "A. evansii cells", "test": "[14C]-PA uptake assay in A. evansii cells grown under nitrate-reducing conditions", "conditions": "Aromatoleum evansii; cells grown anaerobically on PA, exposed to 1 mM inhibitor before the [14C]-PA transport assay; read-out: PA transport capacity retained", "experimental": "Cells were grown in NB from A600 of 0.1 to A600 of 1.8≈2.0, incubated for 14h, induced by adding 1.0 mM IPTG. Cells were harvested by centrifugation, washed twice in sodium salt and suspended at a cell density of 1090 mg of protein/liter (A600 of 4.0) in sodium salt. The uptake of radioactive o-phthalate into cells was followed in a reaction mixture containing 50 µL of prewarmed cells (at 30°C for 5 min) and 50 µL of 250 µM [^14C]-o-phthalate. […] Phthalate uptake was stopped by diluting the suspensions with 1 mL of ice-cold sodium salt, collecting the cells on a 0.22-µm-pore-size Millipore GSWP nitrocellulose filter, and washing, under suction, the cells with 5 mL of ice-cold sodium salt. The filter was dissolved in 2 ml of scintillation fluid (Cocktail Ready Safe, Beckman) and counted in an LKB Wallac liquid scintillation counter. […] To test the transporter's specificity the assays were performed according to the standard procedure but adding different unlabeled substrates: o-phthalate (250 mM), isophthalate (250 mM), terephthalate (250 mM).\nTo study PA transport in denitrifying bacteria expressing the pht peripheral pathway, we used A. evansii cells grown anaerobically in MC medium containing 5 mM benzoate or 5 mM PA. Cells suspended in sodium salt were incubated with 25 µM [^14C]-PA, and a time-course of the amount of [^14C]-PA incorporated into the cells was determined. […]"}, "[3]": {"test_system": "C. necator H16 (pIZPHTRAP) cells", "test": "PHB content by GC-MS of the methanolysed polyester, aerobic bioconversion", "conditions": "cells grown aerobically on the substance as sole carbon source (3 mM), MC medium, 30°C, stationary phase"}}}
{"smiles": "O=C(O)c1ccccc1C(=O)O", "note": "[PA, o-phthalate]", "values": [{"measurement": "fold induction at 3000 µM", "setting": "boxB2 gene", "result": "~400"}, {"measurement": "basal expression of the benA gene", "setting": "benA gene", "result": "similar"}, {"measurement": "fold induction at 3000 µM", "setting": "boxB1 gene", "result": "~40"}, {"measurement": "PHB production efficiency, lower than that of the recombinant C. necator H16 strain", "setting": "[1]", "result": 5, "unit": "fold"}, {"measurement": "uptake rate of 25 µM [14C]-PA with competitor", "setting": "[2]; 250 µM unlabeled competitor, result in words", "result": "completely inhibited"}, {"measurement": "Km", "setting": "[2]; Azoarcus sp. CIB (pIZPHTRAP) cells, read-out: transport affinity (Km)", "result": 15, "unit": "µM"}, {"measurement": "saturation kinetics", "setting": "[2]; PA concentration at saturation, Azoarcus sp. CIB (pIZPHTRAP) cells", "result": "about 20 µM"}, {"measurement": "maximum uptake rate", "setting": "[2]; [14C]-PA 5 to 25 µM, Azoarcus sp. CIB (pIZPHTRAP) cells", "result": "about 156 ± 14 pmol min^-1 mg protein^-1"}]}
{"smiles": "O=C(O)c1cccc(C(=O)O)c1", "note": "[isophthalate, reference compound]", "values": [{"measurement": "[14C]-PA uptake rate, % of the rate in the absence of a competitor substrate", "setting": "[2]; 250 µM unlabeled competitor", "result": 50, "unit": "%"}]}
{"smiles": "C(=NC1CCCCC1)=NC1CCCCC1", "note": "[DCCD, 1,3-dicyclohexylcarbodiimide, reference compound]", "values": [{"measurement": "activity at 1000 µM", "setting": "A. evansii cells", "result": "> 80", "unit": "%"}, {"measurement": "[14C]-PA uptake after pre-incubation with inhibitor", "setting": "[2]; result in words", "result": "did not decrease"}]}
{"smiles": "O=C(O)c1ccccc1", "note": "[benzoate]", "values": [{"measurement": "PHB accumulated, of the total cell dry weight", "setting": "[3]", "result": 14, "unit": "%"}]}
{"smiles": "O=[N+]([O-])c1ccc(O)c([N+](=O)[O-])c1", "note": "[DNP, 2,4-dinitrophenol, reference compound]", "values": [{"measurement": "[14C]-PA uptake after pre-incubation with inhibitor", "setting": "[2]; result in words", "result": "completely inhibited"}]}
{"smiles": "O=C(O)c1ccc(C(=O)O)cc1", "note": "[terephthalate, reference compound]", "values": [{"measurement": "[14C]-PA uptake rate, % of the rate in the absence of a competitor substrate", "setting": "[2]; 250 µM unlabeled competitor", "result": 60, "unit": "%"}]}
